# Data published in US9920061B2, “Imidazo[1,5-A]pyrimidinyl carboxamide compounds and their use in the treatment of medical disorders” (Lysosomal Therapeutics Inc., priority 2016, dated 2018).
# Like-named read-outs stand apart in the source and are kept apart here.
# Experiments:
# [1] = Compound solubility in water; format: physicochemical
# [2] = molecular target: T1, glucocerebrosidase (Gcase) (Homo sapiens, UniProt P04062); assay: Glucocerebrosidase (Gcase) activation assay, 4-methylumbelliferyl-beta-D-glucopyranoside substrate, with saposin C; format: biochemical
# T1 sequence (P04062 40-536): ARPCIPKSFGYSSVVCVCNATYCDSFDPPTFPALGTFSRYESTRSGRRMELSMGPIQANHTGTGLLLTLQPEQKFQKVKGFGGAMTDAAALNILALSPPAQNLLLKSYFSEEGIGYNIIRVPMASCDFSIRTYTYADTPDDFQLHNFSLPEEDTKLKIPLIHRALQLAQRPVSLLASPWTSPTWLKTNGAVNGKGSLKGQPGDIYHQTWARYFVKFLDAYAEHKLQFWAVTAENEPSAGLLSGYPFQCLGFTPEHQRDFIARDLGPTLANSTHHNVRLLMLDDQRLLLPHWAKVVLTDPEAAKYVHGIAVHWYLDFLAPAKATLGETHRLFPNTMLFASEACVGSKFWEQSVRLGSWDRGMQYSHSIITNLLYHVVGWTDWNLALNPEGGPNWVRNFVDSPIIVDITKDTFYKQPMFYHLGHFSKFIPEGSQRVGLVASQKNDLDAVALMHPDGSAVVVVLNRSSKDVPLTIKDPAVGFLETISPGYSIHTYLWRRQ
# Protocol: The ability of exemplary compounds to activate glucocerebrosidase (Gcase) was measured.
# A 484 μL aliquot of a 1.0 mg/mL solution of phosphatidylserine (PS) (Sigma P7769) in chloroform was evaporated under a stream of nitrogen for 1 hour. The lipid film was dissolved over 4 minutes of vigorous vortexing in 40 mL of 176 mM K2HPO4/50 mM citric acid (pH 4.7) containing 7.5 μL of triton X-100, resulting in a mixed micellar preparation with a composition of 0.32 mM triton and 0.37 mol % PS. 4-Methylumbelliferyl-beta-D-glucopyranoside (ACROS-337025000) was dissolved in the micellar solution to a final concentration of 2 mM for use as the reaction substrate.
# Test compounds were diluted to the desired concentrations with dimethylsulfoxide (DMSO) from 10 mM stocks, and 0.41 μL of the DMSO compound mixture was added to 100 μL of micellar solution containing 10 nM GCase and 100 nM saposin C (Enzo ALX-201-262-C050). Pre-incubation was allowed to occur for 30 minutes at room temperature, after which the reaction was initiated by combining 25 μL of substrate solution with 25 μL of compound/GCase/saposin mixture. The reaction proceeded for 15 minutes at room temperature and was stopped by adding 150 μL of 1M glycine, pH 12.5. The endpoint of the reaction was monitored by measuring fluorescence intensity (excitation: 365 nm; emission: 440 nm) on a SpectraMax i3 instrument (Molecular Devices). Test compounds were screened at 1.0 and 0.1 μM final concentration, and subsequent 8-point dose response curves were obtained using 3-fold dilutions from a maximum final concentration of […].
# [3] = test compound at 0.1 μM, read-out: Percent Gcase Activation, 0.1 μM Test Compound
# [4] = test compound at 1.0 μM, read-out: Percent Gcase Activation, 1 μM Test Compound
# [5] = 0.1 μM test compound, read-out: Percent Gcase Activation 0.1 μM Test Compound
# [6] = 1 μM test compound, read-out: Percent Gcase Activation 1 μM Test Compound
Compound,solubility ([1]; in water) [µg/mL],"activation at 0.1 µM [2, 3] [%]","activation at 1 µM [2, 4] [%]",solubility [1] [µg/mL],"activation at 0.1 µM [2, 5] [%]","activation at 1 µM [2, 6] [%]"
Cc1cc(-c2cccc(-c3ncco3)c2)nc2c(C(=O)NC(C3CC3)C(F)(F)F)ncn12 (centres unmarked) [IV-60],2.3,> 20,> 60,,,
C#CC(C)(C)NC(=O)c1ncn2c(C)cc(-c3ccc4c(c3)OCO4)nc12 [IV-26],0.5,10 to 20,> 60,,,
C#CC(C)(C)NC(=O)c1ncn2c(C)cc(-c3cccc(OC)n3)nc12 [III-148],,,,4.9,< 10,30 to 60
Cc1cc(OC2CC(F)(F)C2)nc2c(C(=O)NC(C3CC3)C(F)(F)F)ncn12 (centres unmarked) [III-158],,,,21.9,< 10,30 to 60
COc1cccc(-c2cc(C)n3cnc(C(=O)N[C@H](C)C4CC4)c3n2)c1 [IV-1],8.3,10 to 20,> 60,,,
COc1cc(F)cc(-c2cc(C)n3cnc(C(=O)NC(C4CC4)C4CC4)c3n2)c1 [III-173],,,,1.7,> 20,> 60
Cc1cc(-c2ccccn2)nc2c(C(=O)N[C@H]3CC[C@H](OCC(C)C)CC3)ncn12 [III-96],,,,6.6,< 10,30 to 60
Cc1cc(-c2ccncc2)nc2c(C(=O)NC(C)(C)C3CC3)ncn12 [III-93],,,,18.8,< 10,< 30
Cc1cc(-c2cc(F)cc(C#N)c2)nc2c(C(=O)NC(C)(C)C)ncn12 [IV-111],0.9,10 to 20,> 60,,,
Cc1cc(Oc2ccccc2F)nc2c(C(=O)N[C@@H](C)C3CC3)ncn12 [III-120],,,,27.7,< 10,30 to 60
COc1cc(-c2cc(C)n3cnc(C(=O)NC(C4CC4)C(F)(F)F)c3n2)ccc1F (centres unmarked) [III-171],,,,0.6,> 20,> 60
CCc1cc(N2CCCC(F)(F)C2)nc2c(C(=O)NC(C3CC3)C(F)(F)F)ncn12 (centres unmarked) [III-137],,,,12,10 to 20,> 60
Cc1cc(C)n2cnc(C(=O)NC(C)(C)C3CC4(CCC4)C3)c2n1 [III-25],,,,1.5,> 20,> 60
Cc1cc(-c2cnsc2)nc2c(C(=O)NC(C3CC3)C(F)(F)F)ncn12 (centres unmarked) [IV-51],2.1,> 20,> 60,,,
COCCOc1cccc(-c2cc(C)n3cnc(C(=O)N[C@@H](C)C4CC4)c3n2)c1 [III-101],,,,16,10 to 20,> 60
CCCCO[C@H]1C[C@H]2CC[C@@H](C1)[C@@H]2NC(=O)c1ncn2c(C)cc(COC)nc12 [IV-5],24.3,< 10,> 60,,,
Cc1cc(-c2cccc(C#N)c2)nc2c(C(=O)N[C@@H](C)C3CC3)ncn12 [III-150],,,,10.1,10 to 20,> 60
Cc1cc(N2CCCN(C(C)C)C2=O)nc2c(C(=O)NC(C3CC3)C(F)(F)F)ncn12 (centres unmarked) [IV-89],25.6,< 10,< 30,,,
Cc1cc(N2CCCC(F)(F)C2)nc2c(C(=O)N[C@@H](C)C3CC3)ncn12 [III-114],,,,26,10 to 20,> 60
Cc1cc(-c2ccccc2CC#N)nc2c(C(=O)NC(C3CC3)C(F)(F)F)ncn12 (centres unmarked) [IV-40],15.4,< 10,30 to 60,,,

Compound,solubility ([1]; in water) [µg/mL],"activation at 0.1 µM [2, 3] [%]","activation at 1 µM [2, 4] [%]",solubility [1] [µg/mL],"activation at 0.1 µM [2, 5] [%]","activation at 1 µM [2, 6] [%]"
Cc1cc(N2CCC(F)(F)C2)nc2c(C(=O)NC(C3CC3)C(F)(F)F)ncn12 (centres unmarked) [III-139],,,,1.8,> 20,> 60
Cc1cc(-c2ccc3c(c2)OCO3)nc2c(C(=O)N[C@H](C)C(F)(F)F)ncn12 [IV-77],1.3,> 20,> 60,,,
Cc1sncc1-c1cc(C)n2cnc(C(=O)N[C@@H](C3CC3)C(F)(F)F)c2n1 [IV-99],,> 20,> 60,,,
Cc1nc2c(C(=O)N[C@@H](C)C3CC3)ncn2cc1-c1ccc(F)cc1 [III-39],,,,,< 10,< 30
Cc1cc(-c2ccc(C#N)c(O)c2)nc2c(C(=O)NC(C3CC3)C(F)(F)F)ncn12 (centres unmarked) [III-159],,,,,< 10,< 30
Cc1cc(-c2ccc(C#N)o2)nc2c(C(=O)N[C@@H](C3CC3)C(F)(F)F)ncn12 [IV-35],,> 20,> 60,,,
Cc1cc(-c2nccs2)nc2c(C(=O)NC(C)(C)C)ncn12 [IV-54],,< 10,< 30,,,
Cc1cn2cnc(C(=O)N[C@@H](C)C3CC3)c2nc1-c1ccc(F)cc1 [III-32],,,,,< 10,< 30
Cc1c(-c2ccc(F)cc2)cnc2c(C(=O)N[C@@H](C)C3CC3)ncn12 [III-38],,,,,< 10,< 30
Cc1cc(-c2ccc(C#N)o2)nc2c(C(=O)N[C@H](C3CC3)C(F)(F)F)ncn12 [IV-34],,> 20,> 60,,,
Cc1nc2c(C(=O)N[C@@H](C)C3CC3)ncn2c(C)c1-c1ccc(F)cc1 [III-40],,,,,< 10,< 30
Cc1cc(Oc2ccc(F)cc2)nc2c(C(=O)NC(C)(C)C3CC3)ncn12 [III-77],,,,,< 10,30 to 60
Cc1cc(-c2cccc(OC(F)(F)F)n2)nc2c(C(=O)N[C@H](C)C3CC3)ncn12 [IV-12],,< 10,30 to 60,,,
Cc1nscc1-c1cc(C)n2cnc(C(=O)N[C@H](C3CC3)C(F)(F)F)c2n1 [IV-96],,10 to 20,> 60,,,
Cc1sncc1-c1cc(C)n2cnc(C(=O)N[C@H](C3CC3)C(F)(F)F)c2n1 [IV-98],,> 20,> 60,,,
Cc1nscc1-c1cc(C)n2cnc(C(=O)N[C@@H](C3CC3)C(F)(F)F)c2n1 [IV-97],,10 to 20,> 60,,,
Cc1cc(C#N)c(-c2cc(C)n3cnc(C(=O)N[C@H](C4CC4)C(F)(F)F)c3n2)o1 [IV-93],,> 20,> 60,,,
COc1cccc(-c2cc(C)n3cnc(C(=O)NC(C4CC4)C(F)(F)F)c3n2)n1 (centres unmarked) [IV-91],1.4,,,,,
Cc1cc(C#N)c(-c2cc(C)n3cnc(C(=O)N[C@@H](C4CC4)C(F)(F)F)c3n2)o1 [IV-94],,> 20,> 60,,,
Cc1cc(-c2cccnc2)nc2c(C(=O)NC(C)C(C)C3CC3)ncn12 (centres unmarked) [III-189],,,,,< 10,30 to 60
